One experiment deals with hA2a/CHO (Homo sapiens (Human), UniProt P29274). The experiment can be described thus: cAMP inhibition assay in hA2a/CHO cells, 10 μM adenosine.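 Note: compounds added to cells 30 min ahead of adenosine, then a further 30 min at 37 °C with adenosine before cAMP detection.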 It is filed as cell-based. The settings on record: read-out: cAMP & FLIPR IC50 (nM) hA2a.
In the next experiment the target is mA2a/CHO (Mus musculus (Mouse), UniProt Q60613). Kind of experiment: cAMP inhibition assay in mA2a/CHO cells, 10 μM adenosine.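 Note: compounds preincubated 30 min at 37 °C before the adenosine challenge, then 30 min further stimulation, readout after 60 min detection reagent incubation at room temperature in 384-well plates.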 The following applies: read-out: cAMP & FLIPR IC50 (nM) mA2a. It is filed as cell-based.
Another experiment has as its target hA2b/CHO (Homo sapiens (Human), UniProt P29275). The experiment can be described thus: cAMP inhibition assay in hA2b/CHO cells, 10 μM adenosine.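 Note: cells exposed to compound 30 min at 37 °C, then stimulated with adenosine a further 30 min, cAMP read after 60 min at room temperature.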 The settings on record: read-out: cAMP & FLIPR IC50 (nM) hA2b. The experiment is classed as cell-based.
The target in experiment [1] is hADORA1/CHO (hA1 expressing) cells (Homo sapiens (Human), UniProt P30542). Kind of experiment: cell-based. The settings on record: FLIPR inhibition, 10 μM adenosine, read-out: cAMP & FLIPR IC50 (nM) hA1.
Experimental: hADORA1/CHO (hA1 expressing) cells (Genscript) were plated at 1×10^4 cells/well into 384-well polystyrene plates one day before starting the experiment. On the day of experiment, the supernatant was discard and replaced with 40 μL of dye (FLIPR calcium 5 Assay Kit) per well and the plates were incubated for 60 mins at 37° C. plus 5% CO2. Then testing compounds were added at different concentrations for FLIPR™ inhibition assay. After a 400s incubation with compound, 10 μM adenosine was added into the cells, and the signal was captured by FLIPR.

Experimental findings from US10898481B2 (priority 2018, dated 2021) are described below.

The structures appear in SMILES notation.

mA2a/CHO, sequence (Q60613 whole entry): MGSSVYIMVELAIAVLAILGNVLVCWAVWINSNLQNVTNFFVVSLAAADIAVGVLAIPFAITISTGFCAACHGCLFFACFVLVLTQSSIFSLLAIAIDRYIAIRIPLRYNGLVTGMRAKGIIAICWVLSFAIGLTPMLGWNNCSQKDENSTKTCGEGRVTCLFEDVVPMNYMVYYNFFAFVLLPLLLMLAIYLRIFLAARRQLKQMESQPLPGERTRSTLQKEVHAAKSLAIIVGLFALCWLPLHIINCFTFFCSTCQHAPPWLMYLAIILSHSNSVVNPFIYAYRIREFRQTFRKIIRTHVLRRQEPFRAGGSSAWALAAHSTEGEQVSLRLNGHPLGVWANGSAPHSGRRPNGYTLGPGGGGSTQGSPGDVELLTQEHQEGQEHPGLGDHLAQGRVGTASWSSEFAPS
hA2b/CHO, sequence (P29275 whole entry): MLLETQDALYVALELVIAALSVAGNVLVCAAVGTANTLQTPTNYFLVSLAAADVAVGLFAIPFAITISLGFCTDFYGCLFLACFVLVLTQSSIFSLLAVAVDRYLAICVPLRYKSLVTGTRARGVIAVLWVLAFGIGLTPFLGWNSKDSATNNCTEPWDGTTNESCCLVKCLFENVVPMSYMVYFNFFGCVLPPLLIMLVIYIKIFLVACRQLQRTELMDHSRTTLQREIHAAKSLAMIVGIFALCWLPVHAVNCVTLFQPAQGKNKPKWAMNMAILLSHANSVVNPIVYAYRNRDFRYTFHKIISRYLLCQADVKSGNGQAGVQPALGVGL
hA2a/CHO, sequence (P29274 whole entry): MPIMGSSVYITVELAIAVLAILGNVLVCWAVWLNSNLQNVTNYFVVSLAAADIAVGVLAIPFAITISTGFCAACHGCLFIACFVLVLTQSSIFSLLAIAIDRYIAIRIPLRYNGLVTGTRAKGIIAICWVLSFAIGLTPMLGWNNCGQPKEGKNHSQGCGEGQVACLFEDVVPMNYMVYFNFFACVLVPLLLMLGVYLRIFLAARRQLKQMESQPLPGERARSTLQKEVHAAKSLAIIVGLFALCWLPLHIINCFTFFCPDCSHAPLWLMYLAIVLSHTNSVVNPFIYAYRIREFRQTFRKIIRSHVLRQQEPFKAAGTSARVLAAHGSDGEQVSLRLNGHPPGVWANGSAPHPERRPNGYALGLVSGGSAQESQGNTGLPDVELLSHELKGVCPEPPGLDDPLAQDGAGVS
hADORA1/CHO (hA1 expressing) cells, sequence (P30542 whole entry): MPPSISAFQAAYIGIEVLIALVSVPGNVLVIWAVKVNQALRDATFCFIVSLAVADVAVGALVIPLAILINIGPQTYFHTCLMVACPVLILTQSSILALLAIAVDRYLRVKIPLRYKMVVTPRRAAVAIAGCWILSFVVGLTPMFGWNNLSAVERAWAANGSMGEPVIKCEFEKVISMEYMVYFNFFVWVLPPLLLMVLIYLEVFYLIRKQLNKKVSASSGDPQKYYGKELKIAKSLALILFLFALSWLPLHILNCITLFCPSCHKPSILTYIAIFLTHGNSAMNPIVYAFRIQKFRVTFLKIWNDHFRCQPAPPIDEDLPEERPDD
Experimental for hA2a/CHO: (§1) hA2a/CHO, hA2b/CHO, hA3/CHO and mA2a/CHO (Genscript) were plated at 5×10^3 cells/well into 384-well polystyrene plates at the day of experiment. Compounds were pre-incubated with cells for 30 min at 37° C., 5% CO2. Then 10 μM adenosine was added to the cells and incubated for 30 min at 37° C., 5% CO2. Detection reagent (CISBIO) was added and the plates were incubated for 60 min at room temperature. The signal was captured by Envision.
Experimental for hA2b/CHO: as §1
Experimental for mA2a/CHO: as §1

Broadly, the IC50 is the point on the concentration scale where inhibition reaches its midpoint. In the case of `Cc1cnc2ccc(-c3nc(C(=O)NCC4CN(C)CCO4)c(N)nc3-c3ncco3)cn12` (racemic) [Example 207, rac-3-amino-6-(3-methylimidazo[1,2-a]pyridin-6-yl)-N-((4-methylmorpholin-2-yl)methyl)-5-(oxazol-2-yl)pyrazine-2-carboxamide], the concentration for half-maximal inhibition (IC50) turned out to be 12 nM at hA2a/CHO, 44 nM at mA2a/CHO, 774 nM on hA2b/CHO and 5950 nM in experiment [1].

On to `Cc1cnc2ccc(-c3nc(C(=O)NC[C@@H](C)O)c(N)nc3-c3ncco3)cn12` [Example 145, (R)-3-amino-N-(2-hydroxypropyl)-6-(3-methylimidazo[1,2-a]pyridin-6-yl)-5-(oxazol-2-yl)pyrazine-2-carboxamide], for which the IC50 on hA2a/CHO turned out to be 32 nM; at mA2a/CHO it was 205 nM; at hA2b/CHO, 789 nM; in experiment [1], 10000 nM.

For the compound `Cn1cc(-c2nc(C(=O)NCc3ncccc3CO)c(N)nc2-c2ncco2)ccc1=O` [Example 36, 3-amino-N-((3-(hydroxymethyl)pyridin-2-yl)methyl)-6-(1-methyl-6-oxo-1,6-dihydropyridin-3-yl)-5-(oxazol-2-yl)pyrazine-2-carboxamide], the half-inhibitory concentration (IC50) was 180 nM at hA2a/CHO, 419 nM at mA2a/CHO, 2530 nM at hA2b/CHO and 3010 nM in experiment [1].

Regarding `Nc1nc(-c2ncco2)c(-c2ccc(=O)n(C3CC3)c2)nc1C(=O)NCc1c(F)cccc1F` [Example 38, 3-amino-6-(1-cyclopropyl-6-oxo-1,6-dihydropyridin-3-yl)-N-[(2,6-difluorophenyl)methyl]-5-(1,3-oxazol-2-yl)pyrazine-2-carboxamide], the IC50 on hA2a/CHO was 2.4 nM; at mA2a/CHO, 5.3 nM; at hA2b/CHO it was 59 nM; in experiment [1] it was 61 nM.

As for `CN1CCCC1CNC(=O)c1nc(-c2ccc3ncc(Cl)n3c2)c(-c2ncco2)nc1N` (stereo in doubt) [Cmpd. 209, 3-amino-6-[3-chloroimidazo[1,2-a]pyridin-6-yl]-N-[[(2S)-1-methylpyrrolidin-2-yl]methyl]-5-(1,3-oxazol-2-yl)pyrazine-2-carboxamide], the IC50 on hA2a/CHO is 14 nM; on mA2a/CHO it was 134 nM; at hA2b/CHO, 1260 nM; in experiment [1] it was over 10000 nM.

On to `COc1ccccc1CNC(=O)c1nc(-c2cc(C)nc(C)c2)c(-n2ccc(C)n2)nc1N` [Example 75, 3-amino-6-(2,6-dimethylpyridin-4-yl)-N-(2-methoxybenzyl)-5-(3-methyl-1H-pyrazol-1-yl)pyrazine-2-carboxamide], for which the half-inhibitory concentration (IC50) at hA2a/CHO was 6.1 nM; on mA2a/CHO it was 157 nM; at hA2b/CHO, at least 10000 nM; in experiment [1], 44 nM.

With `Cc1cnc2ccc(-c3nc(C(=O)NCC4(C)CCCN4C)c(N)nc3-c3ncco3)cn12` (single isomer, unassigned; isomer 2) [Example 247, 3-amino-N-((1,2-dimethylpyrrolidin-2-yl)methyl)-6-(3-methylimidazo[1,2-a]pyridin-6-yl)-5-(oxazol-2-yl)pyrazine-2-carboxamide (isomer 2)], the IC50 was 36 nM at hA2a/CHO, 345 nM at mA2a/CHO, 2000 nM on hA2b/CHO and 1490 nM in experiment [1].

Take `Cc1cnc2ccc(-c3nc(C(=O)NC4CC4)c(N)nc3-c3ncco3)cn12` [Example 245, 3-amino-N-cyclopropyl-6-(3-methylimidazo[1,2-a]pyridin-6-yl)-5-(oxazol-2-yl)pyrazine-2-carboxamide]: the IC50 at hA2a/CHO was found to be 3.8 nM; on mA2a/CHO, 39 nM; on hA2b/CHO it was 247 nM; in experiment [1], 87 nM.

In the case of `Cc1cnc2ccc(-c3nc(C(=O)N[C@H]4CCCOC4)c(N)nc3-c3ncco3)cn12` (single isomer, unassigned; isomer 1) [Example 163, 3-amino-6-(3-methylimidazo[1,2-a]pyridin-6-yl)-5-(oxazol-2-yl)-N-(tetrahydro-2H-pyran-3-yl)pyrazine-2-carboxamide (isomer 1)], the IC50 at hA2a/CHO was 3.28 nM; at mA2a/CHO, 22 nM; at hA2b/CHO, 387 nM; in experiment [1], over 10000 nM.

For `Cc1ccc(-c2nc(N)c(C(=O)NCc3c(F)cccc3F)nc2-c2ccc(=O)n(C)c2)o1` [Example 2, 3-amino-N-[(2,6-difluorophenyl)methyl]-6-(1-methyl-6-oxo-1,6-dihydropyridin-3-yl)-5-(5-methylfuran-2-yl)pyrazine-2-carboxamide], the IC50 at hA2a/CHO came to 0.9 nM; on mA2a/CHO, 21 nM; at hA2b/CHO, 92 nM; in experiment [1], 26 nM.

In the case of `Cc1cnc2ccc(-c3nc(C(=O)NCc4cccc(N[C@H]5C[C@@H](N(C)C)C5)n4)c(N)nc3-c3ncco3)cn12` [Cmpd. 224, Cis-3-amino-6-[3-methylimidazo[1,2-a]pyridin-6-yl]-5-(1,3-oxazol-2-yl)-N-[(6-[[3-(di-methylamino)cyclobutyl]amino]pyridin-2-yl)methyl]pyrazine-2-carboxamide], the IC50 was 3.2 nM on hA2a/CHO, 27 nM at mA2a/CHO, 245 nM on hA2b/CHO and 7880 nM in experiment [1].

For the compound `Cc1cc(-c2nc(CNC(=O)c3ccccn3)c(N)nc2-c2ccc(F)cc2)cc(C)n1` [Example 8, N-[[3-amino-6-(2,6-dimethylpyridin-4-yl)-5-(4-fluorophenyl)pyrazin-2-yl]methyl]pyridine-2-carboxamide], the IC50 at hA2a/CHO was 116 nM; on mA2a/CHO, 390 nM; on hA2b/CHO, at least 10000 nM; in experiment [1] it was 3400 nM.

`Cc1cnc2ccc(-c3nc(C(=O)NC[C@H]4CCCN4)c(N)nc3-c3ncco3)cn12` [Example 122, (R)-3-amino-6-(3-methylimidazo[1,2-a]pyridin-6-yl)-5-(oxazol-2-yl)-N-(pyrrolidin-2-ylmethyl)pyrazine-2-carboxamide]: the 50% inhibitory concentration (IC50) on hA2a/CHO was determined as 34 nM; on mA2a/CHO, 126 nM; at hA2b/CHO, 887 nM; in experiment [1] it was 10000 nM.

As for `Cc1cnc2ccc(-c3nc(C(=O)NCC4CN(C)CCO4)c(N)nc3-c3ccc(F)cc3)cn12` (single isomer, unassigned; isomer 2) [Example 250, 3-amino-5-(4-fluorophenyl)-6-(3-methylimidazo[1,2-a]pyridin-6-yl)-N-((4-methylmorpholin-2-yl)methyl) pyrazine-2-carboxamide (isomer 2)], the 50% inhibitory concentration (IC50) on hA2a/CHO came out at 5 nM; on mA2a/CHO, 31 nM; at hA2b/CHO it was 212 nM; in experiment [1] it was 36 nM.

Consider `Cc1cnc2ccc(-c3nc(C(=O)NCC4CCCCN4C)c(N)nc3-c3ncco3)cn12` (single isomer, unassigned; isomer 1) [Example 124, 3-amino-6-(3-methylimidazo[1,2-a]pyridin-6-yl)-N-((1-methylpiperidin-2-yl)methyl)-5-(oxazol-2-yl)pyrazine-2-carboxamide (isomer 1)], for which the IC50 was 2260 nM on hA2a/CHO, at least 10000 nM on mA2a/CHO, at least 10000 nM on hA2b/CHO and 10000 nM in experiment [1].

In the case of `Nc1nc(-c2ncco2)c(-c2ccc(=O)[nH]c2)nc1C(=O)NCc1c(F)cccc1F` [Example 105, 3-amino-N-(2,6-difluorobenzyl)-5-(oxazol-2-yl)-6-(6-oxo-1,6-dihydropyridin-3-yl)pyrazine-2-carboxamide], the concentration for half-maximal inhibition (IC50) turned out to be 0.1 nM at hA2a/CHO, 0.8 nM at mA2a/CHO, 1.8 nM at hA2b/CHO and 3.5 nM in experiment [1].

With `CC(O)Cn1cc(-c2nc(C(=O)NCc3c(F)cccc3F)c(N)nc2-c2ncco2)ccc1=O` (single isomer, unassigned) [Example 107, 3-amino-N-(2,6-difluorobenzyl)-6-(1-(2-hydroxypropyl)-6-oxo-1,6-dihydropyridin-3-yl)-5-(oxazol-2-yl)pyrazine-2-carboxamide], the half-inhibitory concentration (IC50) came to 76 nM on hA2a/CHO, 166 nM at mA2a/CHO, 3490 nM at hA2b/CHO and 341 nM in experiment [1].

Take `CN1CCCC1CNC(=O)c1nc(-c2ccc3ncc(C(F)(F)F)n3c2)c(-c2ncco2)nc1N` (single isomer, unassigned) [Cmpd. 202, 3-amino-N-[[1-methylpyrrolidin-2-yl]methyl]-5-(1,3-oxazol-2-yl)-6-[3-(trifluoromethyl)imidazo[1,2-a]pyridin-6-yl]pyrazine-2-carboxamide]: the IC50 on hA2a/CHO came out at 17 nM; at mA2a/CHO, 105 nM; at hA2b/CHO, 1130 nM; in experiment [1], 6920 nM.

Turning to `Cc1cnc2ccc(-c3nc(C(=O)NCC4(C)CCOC4)c(N)nc3-c3ncco3)cn12` (single isomer, unassigned; isomer 1) [Example 251, 3-amino-6-(3-methylimidazo[1,2-a]pyridin-6-yl)-N-((3-methyltetrahydrofuran-3-yl)methyl)-5-(oxazol-2-yl)pyrazine-2-carboxamide (isomer 1)], the IC50 on hA2a/CHO stood at 4.7 nM; at mA2a/CHO, 34 nM; at hA2b/CHO, 657 nM; in experiment [1] it was 425 nM.

`COC[C@H]1CCCN1C(=O)c1nc(-c2ccc3ncc(C)n3c2)c(-c2ccc(F)cc2)nc1N` [Example 204-1, (R)-(3-amino-5-(4-fluorophenyl)-6-(3-methylimidazo[1,2-a]pyridin-6-yl)pyrazin-2-yl)(2-(methoxymethyl)pyrrolidin-1-yl)methanone]: the IC50 is 49 nM at hA2a/CHO, 249 nM on mA2a/CHO, over 10000 nM on hA2b/CHO and 294 nM in experiment [1].
